Data: PubChem BioAssay (NCI)
Where “and” joins values, the source holds several entries; their conditions need not be identical. Equal entries are not always repeated.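 The compound was tested at five concentrations on cells cultured in 96-well plates, with a 48-hour exposure period. GI50: concentration for 50% inhibition of growth. The concentration for full growth arrest is given as TGI.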

Key:
Test in all cases: NCI anticancer screen, dose series, 48 h
786-0 renal = test system: 786-0 renal
HOP-62 NSCLC = test system: HOP-62 NSCLC
RPMI-8226 leukemia = test system: RPMI-8226 leukemia
SK-MEL-28 melanoma = test system: SK-MEL-28 melanoma
NCI-H226 lung = test system: NCI-H226 lung
U251 CNS = test system: U251 CNS
HCC-2998 colon = test system: HCC-2998 colon
HCT-15 colon = test system: HCT-15 colon
M14 melanoma = test system: M14 melanoma
NCI/ADR-RES ovarian = test system: NCI/ADR-RES ovarian
CCRF-CEM leukemia = test system: CCRF-CEM leukemia
MALME-3M melanoma = test system: MALME-3M melanoma
MDA-MB-231 breast = test system: MDA-MB-231 breast
T-47D breast = test system: T-47D breast
SK-OV-3 ovarian = test system: SK-OV-3 ovarian
OVCAR-4 ovarian = test system: OVCAR-4 ovarian
MDA-MB-435 = test system: MDA-MB-435
COLO 205 colon = test system: COLO 205 colon

Compound | TGI (786-0 renal) | TGI (HOP-62 NSCLC) [µM] | TGI (RPMI-8226 leukemia) | TGI (SK-MEL-28 melanoma) | TGI (NCI-H226 lung) | TGI (U251 CNS) | TGI (HCC-2998 colon) | TGI (HCT-15 colon) | TGI (M14 melanoma) | TGI (NCI/ADR-RES ovarian) [µM] | TGI (CCRF-CEM leukemia) | TGI (MALME-3M melanoma) | TGI (MDA-MB-231 breast) [µM] | TGI (T-47D breast) [µM] | TGI (SK-OV-3 ovarian) | TGI (OVCAR-4 ovarian) [µM] | TGI (MDA-MB-435) [µM] | TGI (COLO 205 colon) [µM] | GI50 (HCC-2998 colon)
COc1ccc(C(=O)c2sc(Nc3ccccc3)nc2N)cc1 | > 100 µM | > 80.2 | > 100 µM | > 100 µM | > 100 µM | > 100 µM | > 100 µM | > 100 µM | > 100 µM | > 100 | > 100 µM | > 100 µM | > 100 | > 100 | > 100 µM | > 100 |  |  | 
COC(=O)[C@@H](O)[C@]1(C(=O)OC)C2O[C@@H](OC)[C@@H]1CCCCCC[C@H]2O | > 100 µM | > 100 | > 100 µM | > 100 µM | > 100 µM | > 100 µM | > 100 µM | > 100 µM | > 100 µM | > 100 | > 100 µM | > 100 µM | > 100 |  | > 100 µM | > 100 | > 100 | > 100 | 
COc1cc(C2c3cc4c(cc3[C@@H](NCCN3CCCCC3)C3COC(=O)[C@H]23)OCO4)cc(OC)c1O (some centres not stated) | 1.01 µM and 0.808 µM | 0.283 | 5.69 µM and 3.93 µM | 7.22 µM and 11.4 µM | 0.209 µM and 0.208 µM | 1.44 µM and 1.62 µM | 1.97 µM and 2.37 µM | 2.26 µM and 2.15 µM | 1.44 µM and 2 µM |  | 0.36 µM and 0.465 µM | 2.59 µM and 3.44 µM |  |  | 0.877 µM and 0.484 µM | > 100 |  | > 100 | 0.427 µM and 1.09 µM
Cc1cc(NC(=O)NC(=O)c2ccccc2N)ccc1Oc1ncc(Br)cn1 | 41.2 µM | 31.2 | > 100 µM | > 100 µM | 6.64 µM | 7.25 µM | 7.77 µM | 8.31 µM | > 31.2 µM |  | > 100 µM | > 69.9 µM | 7.93 | > 24.4 | 3.02 µM | > 75.9 | < 0.0108 | 0.108 | 
CC(=O)CCC(=O)C(=[N+]=[N-])S(=O)(=O)c1ccccc1 | > 100 µM | > 100 | > 100 µM | > 100 µM |  | > 100 µM | > 100 µM | > 100 µM | > 100 µM | > 100 | > 100 µM | > 100 µM | > 100 |  |  |  | > 100 | > 100 | 
CCOC(=O)NC(C(=O)OCC)C(F)(F)F (configuration not stated) | > 100 µM | > 100 | > 100 µM | > 100 µM |  | > 100 µM | > 100 µM | > 100 µM | > 100 µM | > 100 | > 100 µM | > 100 µM | > 100 |  | > 100 µM |  |  | > 100 | 
O=c1c2c(c1=O)C1(SCCCS1)c1cc(Cl)ccc1O2 | > 100 µM | > 100 | > 100 µM | > 100 µM | > 100 µM | > 100 µM | > 100 µM | > 100 µM | > 100 µM | > 100 | > 100 µM | > 100 µM | > 100 |  | > 100 µM | > 100 | > 100 | > 100 | 
Cc1ccc(S(=O)(=O)NNC(=O)c2sc(-c3nc(C)c(C(=O)NNS(=O)(=O)c4ccc(C)cc4)s3)nc2C)cc1 | > 100 µM | > 100 | > 100 µM | > 100 µM | > 100 µM | > 100 µM | > 100 µM | > 100 µM | > 100 µM |  | > 100 µM | > 100 µM |  |  | > 100 µM |  |  | > 100 | 
Cc1cccc(NC(=O)c2cc3cc(N=Nc4ccccc4Cl)ccc3oc2=O)c1 | > 100 µM | > 100 | > 100 µM | > 100 µM | 56.2 µM | > 100 µM | 70.4 µM | > 100 µM | 85.9 µM |  | > 100 µM | > 100 µM |  |  | > 100 µM | > 100 |  | > 100 | 
C/C(=N\Nc1ccccc1Br)c1cccc(/C(C)=N/Nc2ccccc2Br)n1 | > 100 µM | > 100 | > 100 µM | > 100 µM | > 100 µM | > 100 µM | > 100 µM | > 100 µM | > 100 µM | > 100 | > 100 µM | > 100 µM | > 100 |  |  | > 100 | > 100 | > 100 | 
COc1cc(Cl)cc(N(O)C(C)=O)c1OCc1ccccc1 | > 100 µM | > 100 | > 100 µM | > 100 µM | > 100 µM | > 100 µM | > 100 µM | > 100 µM | > 100 µM |  | > 100 µM | > 100 µM |  |  | > 100 µM | > 100 |  | > 100 | 
OCC1OC(NCCNCCNC2OC(CO)C(O)C(O)C2O)C(O)C(O)C1O (configuration not stated) | > 100 µM | > 100 | > 100 µM | > 100 µM | > 100 µM | > 100 µM | > 100 µM | > 100 µM | > 100 µM | > 100 | > 100 µM | > 100 µM | > 100 | > 100 | > 100 µM |  |  | > 100 | 
O=C1CCCCC1=C(I)I | 31.9 µM | 57.5 | 53.4 µM | 31.8 µM | 42.7 µM | 30.2 µM | 29.5 µM |  | 32.3 µM |  | 73.3 µM | 27.5 µM |  | 28.7 | 56.8 µM | 24.5 | 46.8 | 28.8 | 
COc1ccc(C(Cc2cc(OC)c(OC)c(OC)c2)C(=O)O)cc1 (configuration not stated) | > 100 µM | > 100 | > 100 µM | > 100 µM | > 100 µM | > 100 µM | > 100 µM | > 100 µM | > 100 µM |  | > 100 µM | > 100 µM |  |  | > 100 µM | > 100 |  | > 100 | 
